{
  "source": "patent US6407248B1",
  "about": "“α-unsaturated amines, their production and use” (Takeda Chemical Industries, Ltd., priority 1987, dated 2002)",
  "data": [
    {"test_system": "Brown Planthoppers (Nilaparvata lugens)", "experiment": "Effect against brown planthoppers (foliar spray on rice seedlings)", "assay_type": "in vivo", "settings": "Nilaparvata lugens, foliar, 168 h, read-out: % Mortality after 7 days", "procedure": "(§1) Effect Against Brown Planthoppers (Nilaparvata lugens)\n(§2) An emulsifiable concentrate of the compound of the invention, prepared in the same manner as Example 112 below, was diluted with water to a concentration of 500 ppm and sprayed over the stems and leaves of rice seedlings in the 2-leaf stage at the rate of 10 ml per paper pot. Water was put in test tubes and the treated rice seedlings were placed therein. Then, 10 brown planthopper larvae were released in each tube, which was then capped with an aluminum cap. The test tubes were maintained in an incubator at 25° C. and the dead insects were counted 7 days after release. The % mortality was calculated using the following formula. [formula]", "units": {"mortality at 500 µg/mL": "%"}, "values": [
      {"smiles": "CNC(NCc1ccc(Cl)nc1)=C(C(=S)NS(C)(=O)=O)[N+](=O)[O-]", "note": "[Compound 117]", "mortality at 500 µg/mL": 100},
      {"smiles": "CNC(=C[N+](=O)[O-])NCc1cccnc1", "note": "[Compound 3, 1-Methylamino-1-(3-pyridylmethyl)amino-2-nitroethylene]", "mortality at 500 µg/mL": 100},
      {"smiles": "CCCN(Cc1ccc(Cl)nc1)C(=C[N+](=O)[O-])NC", "note": "[Compound 76, 1-[N-(6-Chloro-3-pyridylmethyl)-N-n-propyl]amino-1-methylamino-2-nitroethylene]", "mortality at 500 µg/mL": 100},
      {"smiles": "CN(C)C(=C[N+](=O)[O-])N(C=O)Cc1cnc(Cl)s1", "note": "[Compound 130, 1-[N-(2-Chloro-5-thiazolylmethyl)-N-formyl]amino-1-dimethylamino-2-nitroethylene]", "mortality at 500 µg/mL": 100},
      {"smiles": "CN(C)C(=C[N+](=O)[O-])N(C=O)Cc1ccc(Cl)nc1", "note": "[Compound 113, 1-[N-(6-Chloro-3-pyridylmethyl)-N-formyl]amino-1-dimethylamino-2-nitroethylene]", "mortality at 500 µg/mL": 100},
      {"smiles": "CNC(=C[N+](=O)[O-])N(Cc1ccc(Cl)nc1)CC(F)(F)F", "note": "[Compound 131, 1-[N-(6-Chloro-3-pyridylmethyl)-N-(2,2,2-trifluoroethyl)]amino-1-methylamino-2-nitroethylene]", "mortality at 500 µg/mL": 100},
      {"smiles": "CNC(=C[N+](=O)[O-])NCc1ccc(Br)nc1", "note": "[Compound 118, 1-N-(6-Bromo-3-pyridylmethyl)amino-1-methylamino-2-nitroetylene]", "mortality at 500 µg/mL": 100},
      {"smiles": "O=[N+]([O-])C=C(NCc1ccc(Cl)nc1)NCc1ccc(Cl)nc1", "note": "[Compound 89, 1,1-bis(6-Chloro-3-pyridylmethyl)amino-2-nitro-ethylene]", "mortality at 500 µg/mL": 100},
      {"smiles": "CNC(=C[N+](=O)[O-])NCc1cnc(Cl)s1", "note": "[Compound 106, 1-(2-Chloro-5-thiazolylmethyl)amino-1-methylamino-2-nitroethylene]", "mortality at 500 µg/mL": 100},
      {"smiles": "CNC(=C[N+](=O)[O-])N(C=O)Cc1cnc(Cl)s1", "note": "[Compound 124, 1-[N-(2-chloro-5-thiazolylmethyl)-N-formyl]amino-1-methylamino-2-nitroethylene]", "mortality at 500 µg/mL": 100},
      {"smiles": "CC(C)N(Cc1ccc(Cl)nc1)C(N)=C[N+](=O)[O-]", "note": "[Compound 49, 1-Amino-1-(N-(6-chloro-3-pyridylmethyl)-N-i-propyl]amino-2-nitroethylene]", "mortality at 500 µg/mL": 100},
      {"smiles": "CN(C)C(=C[N+](=O)[O-])NCc1cnc(Cl)s1", "note": "[Compound 104, 1-(2-Chloro-5-thiazolylmethyl)amino-1-dimethyl-amino-2-nitroethylene]", "mortality at 500 µg/mL": 100},
      {"smiles": "CNC(=C[N+](=O)[O-])N(C)Cc1ccc(F)nc1", "note": "[Compound 98]", "mortality at 500 µg/mL": 100},
      {"smiles": "CN(C=O)C(=C[N+](=O)[O-])N(C)Cc1cnc(Cl)s1", "note": "[Compound 121, 1-[N-(2-Chloro-5-thiazolylmethyl)-N-methyl)amino-1-(N-formyl-N-methyl)amino-2-nitroethylene]", "mortality at 500 µg/mL": 100},
      {"smiles": "CCN(Cc1ccc(F)nc1)C(=C[N+](=O)[O-])NC", "note": "[Compound 99, 1-[N-Ethyl-N-(6-fluoro-3-pyridylmethyl)]amino-1-methylamino-2-nitroethylene]", "mortality at 500 µg/mL": 100},
      {"smiles": "CCN(Cc1ccc(Br)nc1)C(=C[N+](=O)[O-])NC", "note": "[Compound 101, 1-[N-(6-Bromo-3-pyridylmethyl)-N-ethyl]amino-1-methylamino-2-nitroethylene]", "mortality at 500 µg/mL": 100},
      {"smiles": "CNC(=C[N+](=O)[O-])N(C)Cc1ccc(Br)nc1", "note": "[Compound 100, 1-[N-(6-Bromo-3-pyridylmethyl)-N-methyl]amino-1-methylamino-2-nitroethylene]", "mortality at 500 µg/mL": 100},
      {"smiles": "CN(C=O)C(=C[N+](=O)[O-])N(C)Cc1ccc(Br)nc1", "note": "[Compound 125, 1-[N-(6-Bromo-3-pyridylmethyl)-N-methyl]amino-1-(N-formyl-N-methyl)amino-2-nitroethylene]", "mortality at 500 µg/mL": 100}
    ]},
    {"test_system": "Brown Planthoppers (Nilaparvata lugens)", "experiment": "Effect against brown planthoppers (foliar spray on rice seedlings)", "assay_type": "in vivo", "settings": "Nilaparvata lugens, foliar, 168 h; emulsifiable concentrate diluted with water to 500 ppm, sprayed on rice seedlings (2-leaf stage), 10 ml per paper pot; 10 larvae per tube; 25° C.; dead insects counted 7 days after release; read-out: % Mortality after 7 days", "procedure": "as §1, §2", "units": {"mortality at 500 µg/mL": "%"}, "values": [
      {"smiles": "CN(C)C(=C[N+](=O)[O-])Nc1ccc(Cl)nc1", "note": "[Compound 107, 1-(6-Chloro-3-pyridyl)amino-1-dimethylamino-2-nitrothylene]", "mortality at 500 µg/mL": 100},
      {"smiles": "O=[N+]([O-])C=C(NCc1cccnc1)N1CCCC1", "note": "[Compound 20, 1-(3-Pyridylmethyl)amino-1-pyrrolidino-2-nitroethylene]", "mortality at 500 µg/mL": 100},
      {"smiles": "CNC(=C[N+](=O)[O-])N(C)Cc1cncc(Br)c1", "note": "[Compound 86, 1-[N-(5-Bromo-3-pyridylmethyl)-N-methyl]amino-1-methylamino-2-nitroethylene]", "mortality at 500 µg/mL": 100},
      {"smiles": "CCCN(C(=C[N+](=O)[O-])NC)c1ccc(Cl)nc1", "note": "[Compound 91, 1-[N-(6-Chloro-3-pyridyl)-N-n-propyl]amino-1-methyl-amino-2-nitroethylene]", "mortality at 500 µg/mL": 100},
      {"smiles": "CN(C=O)C(=C[N+](=O)[O-])N(C)c1ccc(Cl)nc1", "note": "[Compound 112, 1[N-(6-Chloro-3-pyridyl)-N-methyl]amino-1-(N-formyl-N-methyl)amino-2-nitroethylene]", "mortality at 500 µg/mL": 100},
      {"smiles": "CNC(=C[N+](=O)[O-])N(C)Cc1cscn1", "note": "[Compound 88, 1-Methylamino-1-[N-methyl-N-(4-thiazolyl)methyl]-amino-2-nitroethylene]", "mortality at 500 µg/mL": 100},
      {"smiles": "CNC(=C[N+](=O)[O-])N(C)CCc1cccnc1", "note": "[Compound 55, 1-Methylamino-1-[N-methyl-N-[2-(3-pyridyl)ethyl]-amino]-2-nitroethylene]", "mortality at 500 µg/mL": 100},
      {"smiles": "CCNC(=C[N+](=O)[O-])N(CC)c1ccc(Cl)nc1", "note": "[Compound 93, 1-[N-(6-Chloro-3-pyridyl)-N-ethyl]amino-1-ethyl-amino-2-nitroethylene]", "mortality at 500 µg/mL": 100},
      {"smiles": "CCCNC(=C[N+](=O)[O-])N(C)c1ccc(Cl)nc1", "note": "[Compound 95, 1-[N-(6-Chloro-3-pyridyl)-N-methyl]amino-1-n-propyl-amino-2-nitroethylene]", "mortality at 500 µg/mL": 100},
      {"smiles": "CCOC(=O)C(=C(NC)N(C)c1ccc(Cl)nc1)[N+](=O)[O-]", "note": "[Compound 109, 1-[N-(6-Chloro-3-pyridyl)-N-methyl]amino-1-methylamino-2-ethoxycarbonyl-2-nitroethylene]", "mortality at 500 µg/mL": 100},
      {"smiles": "CNC(=C[N+](=O)[O-])N(C)Cc1ccc(Cl)cc1", "note": "[Compound 68, 1-[N-(4-Chlorobenzyl)-N-methyl]amino-1-methylamino-2-nitroethylene]", "mortality at 500 µg/mL": 100},
      {"smiles": "CNC(=C[N+](=O)[O-])N(C)Cc1cnccn1", "note": "[Compound 73, 1-Methylamino-1-[N-methyl-N-(2-pyrazinyl)methyl]amino-2-nitroethylene]", "mortality at 500 µg/mL": 100},
      {"smiles": "CNC(=C[N+](=O)[O-])N(C)c1ccc(Cl)nc1", "note": "[Compound 78, 1-[N-(6-Chloro-3-pyridyl)-N-methyl]amino-1-methyl-amino-2-nitroethylene]", "mortality at 500 µg/mL": 100},
      {"smiles": "CN(C=O)C(=C[N+](=O)[O-])N(C)Cc1cccnc1", "note": "[Compound 65, 1-(N-Formyl-N-methyl)amino-1-[N-methyl-N-(3-pyridyl-methyl)]amino-2-nitroethylene]", "mortality at 500 µg/mL": 100},
      {"smiles": "CNC(=C[N+](=O)[O-])N(C)c1ccc(C)nc1", "note": "[Compound 84, 1-Methylamino-1-[N-methyl-N-(6-methyl-3-pyridyl)]-amino-2-nitroethylene]", "mortality at 500 µg/mL": 100},
      {"smiles": "C=CCNC(=C[N+](=O)[O-])NCc1cccnc1", "note": "[Compound 7, 1-Allylamino-1-(3-pyridylmethyl)amino-2-nitroethylene]", "mortality at 500 µg/mL": 100}
    ]},
    {"test_system": "Brown Planthoppers (Nilaparvata lugens)", "experiment": "Effect against brown planthoppers (foliar spray on rice seedlings)", "assay_type": "in vivo", "settings": "emulsifiable concentrate diluted with water to 500 ppm, sprayed on rice seedlings (2-leaf stage), 10 ml per paper pot; 10 larvae per tube; 25° C.; dead insects counted 7 days after release", "procedure": "as §1, §2", "units": {"% Mortality after 7 days": "%"}, "values": [
      {"smiles": "CCN(Cc1cccnc1)C(=C[N+](=O)[O-])NC", "note": "[Compound 31, 1-[N-Ethyl-N-(3-pyridylmethyl)]amino-1-methylamino-2-nitroethylene]", "% Mortality after 7 days": 100},
      {"smiles": "CN(Cc1ccc(Cl)nc1)C(N)=C[N+](=O)[O-]", "note": "[Compound 45, 1-Amino-1-[N-(6-chloro-3-pyridylmethyl)-N-methyl]-amino-2-nitroethylene]", "% Mortality after 7 days": 100},
      {"smiles": "CNC(=C[N+](=O)[O-])N(C)Cc1ccc(Cl)nc1", "note": "[Compound 29, 1-[N-(6-Chloro-3-pyridylmethyl)-N-methyl]amino-1-methylamino-2-nitroethylene]", "% Mortality after 7 days": 100},
      {"smiles": "CNC(=C[N+](=O)[O-])N(Cc1cccnc1)N(C)C", "note": "[Compound 41, 1-[2,2-Dimethyl-1-(3-pyridylmethyl)]hydrazino-1-methylamino-2-nitroethylene]", "% Mortality after 7 days": 100},
      {"smiles": "CNC(=C[N+](=O)[O-])N(C)C(C)c1cccnc1", "note": "(stereo not drawn) [Compound 40, 1-Metylamino-1-[N-methyl-N-[1-(3-pyridyl)ethyl]]amino-2-nitroethylene]", "% Mortality after 7 days": 100},
      {"smiles": "CN(Cc1cccnc1)C(=C[N+](=O)[O-])NCc1ccccc1", "note": "[Compound 38, 1-Benzylamino-1-[N-methyl-N-(3-pyridylmethyl)l]amino-2-nitroethylene]", "% Mortality after 7 days": 100},
      {"smiles": "CN(C)NC(=C[N+](=O)[O-])NCc1cccnc1", "note": "[Compound 24, 1-(2,2-Dimethyl-1-hydrazino)-1-(3-pyridylmethyl)amino-2-nitroethylene]", "% Mortality after 7 days": 100},
      {"smiles": "CNC(=C[N+](=O)[O-])N(CCOC)Cc1cccnc1", "note": "[Compound 35, 1-Methyl-amino-1-[N-(2-methoxyethyl)-N-(3-pyridylmethyl)]amino-2-nitroethylene]", "% Mortality after 7 days": 100},
      {"smiles": "COCCNC(=C[N+](=O)[O-])NCc1cccnc1", "note": "[Compound 14, 1-(2-Methoxyethyl)amino-1-(3-pyridylmetyl)amino-2-nitroethylene]", "% Mortality after 7 days": 100},
      {"smiles": "CCCCN(C(=C[N+](=O)[O-])NC)c1cccnc1", "note": "[Compound 43]", "% Mortality after 7 days": 100},
      {"smiles": "CNC(=C[N+](=O)[O-])N(Cc1ccccc1)Cc1cccnc1", "note": "[Compound 44, 1-[N-Benzyl-N-(3-pyridylmethyl)]amino-1-methylamino-2-nitroethylene]", "% Mortality after 7 days": 100}
    ]}
  ]
}
